Blank lines part the entries; values can stand above or below the compound they belong to. The source made the active and inactive calls. The calls are words filed in the database; no cut-off is given here.
What was measured:
[1] = target: Urease subunit alpha/Urease subunit beta (Helicobacter pylori (strain ATCC 700392 / 26695) (Campylobacterpylori), UniProt P69996); test: (§1) Inhibition of Helicobacter pylori urease using urea as substrate assessed as decrease in ammonia production incubated for 0.5 hrs by indole phenol method; format: protein-complex assay
[2] = Cytotoxicity against human K562 cells assessed as cell viability at 250 ug/ml incubated for 72 hrs by CCK8 assay relative to control; format: toxicity, cell-based; details: at 250 µg/mL, read-out: Activity
[3] = Cytotoxicity against human HepG2 cells assessed as cell viability at 250 ug/ml incubated for 72 hrs by CCK8 assay relative to control; format: toxicity, cell-based; details: at 250 µg/mL, read-out: Activity
[4] = Cytotoxicity against human SGC-7901 cells assessed as cell viability at 250 ug/ml incubated for 72 hrs by CCK8 assay relative to control; format: toxicity, cell-based; details: at 250 µg/mL, read-out: Activity
[5] = Cytotoxicity against human L02 cells assessed as cell viability at 250 ug/ml incubated for 72 hrs by CCK8 assay relative to control; format: toxicity, cell-based; details: at 250 µg/mL, read-out: Activity
[6] = target: T1, Urease subunit alpha/Urease subunit beta (Helicobacter pylori (strain ATCC 700392 / 26695) (Campylobacterpylori)) (UniProt P69996+P14916); test: Inhibition of urease using urea as substrate assessed as decrease in ammonia production at 800 ug/ml preincubated for 100 min by indole phenol method; format: protein-complex assay; details: dose 800.0 µg/ml
[7] = target: T1, Urease subunit alpha/Urease subunit beta (Helicobacter pylori (strain ATCC 700392 / 26695) (Campylobacterpylori)); test: Inhibition of urease using urea as substrate assessed as decrease in ammonia production at 800 ug/ml by indole phenol method; format: protein-complex assay; details: dose 800.0 µg/ml, time <= 120.0 min
[8] = target: T1, Urease subunit alpha/Urease subunit beta (Helicobacter pylori (strain ATCC 700392 / 26695) (Campylobacterpylori)); test: as §1; format: protein-complex assay

Sequence of Urease subunit alpha/Urease subunit beta (P69996 whole entry): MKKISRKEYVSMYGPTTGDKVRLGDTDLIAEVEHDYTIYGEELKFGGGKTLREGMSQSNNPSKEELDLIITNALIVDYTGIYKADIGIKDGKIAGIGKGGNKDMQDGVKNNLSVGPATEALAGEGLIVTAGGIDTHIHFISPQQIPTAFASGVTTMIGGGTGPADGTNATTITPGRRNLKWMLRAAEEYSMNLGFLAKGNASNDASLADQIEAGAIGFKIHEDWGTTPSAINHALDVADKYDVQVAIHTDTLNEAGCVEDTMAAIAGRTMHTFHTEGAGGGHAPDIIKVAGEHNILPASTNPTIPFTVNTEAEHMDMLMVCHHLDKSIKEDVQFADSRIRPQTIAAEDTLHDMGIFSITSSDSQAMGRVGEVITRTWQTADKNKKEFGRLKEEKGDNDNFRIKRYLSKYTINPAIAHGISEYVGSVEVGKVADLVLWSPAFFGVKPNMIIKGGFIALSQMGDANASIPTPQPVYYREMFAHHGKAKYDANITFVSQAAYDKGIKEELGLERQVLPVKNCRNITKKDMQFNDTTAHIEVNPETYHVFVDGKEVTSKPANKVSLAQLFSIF
Sequence of Urease subunit alpha/Urease subunit beta (P14916 whole entry, further chain): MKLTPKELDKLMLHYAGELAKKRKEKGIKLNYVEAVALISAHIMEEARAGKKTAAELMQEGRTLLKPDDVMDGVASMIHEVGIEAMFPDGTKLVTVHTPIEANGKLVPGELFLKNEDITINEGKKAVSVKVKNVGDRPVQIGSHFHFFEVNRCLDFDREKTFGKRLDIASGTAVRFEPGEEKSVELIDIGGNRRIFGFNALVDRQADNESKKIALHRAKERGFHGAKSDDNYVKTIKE
T1 sequence (P14916 whole entry, looked up): as the sequence (P14916 whole entry, further chain) above
T1 sequence (P69996 whole entry, looked up): as the sequence (P69996 whole entry) above

- IC50 [1]: 110 µM
SMILES: CCc1ccc(NCC(O)c2n[nH]c(=O)[nH]2)cc1 (configuration not stated)

- IC50 [1]: 73.1 µM
SMILES: O=C1OC(c2n[nH]c(=O)o2)CN1c1ccc(OCc2ccccc2)cc1 (configuration not stated)

- IC50 [1]: 90.5 µM
SMILES: CCc1cccc(NCC(O)c2n[nH]c(=O)[nH]2)c1 (configuration not stated)

- IC50 [1]: 186 µM
SMILES: Cc1ccccc1N1CC(c2n[nH]c(=O)o2)OC1=O (configuration not stated)

- IC50 [1]: 6.31 µM
- Ki [1]: 2.24 µM
SMILES: O=c1[nH]nc(C(O)CNc2cccc(OCc3ccccc3)c2)[nH]1 (configuration not stated)
- viability at 72 h, 250 ug/ml [2]: 91.6%
- viability at 72 h, 250 ug/ml [3]: 90.3%
- viability at 72 h, 250 ug/ml [4]: 93.4%
- viability at 72 h, 250 ug/ml [5]: 95.4%

- IC50 [1]: 1.21 µM
- Ki [1]: 0.24 µM
- inhibition [6]: Active
- inhibition [7]: Dose-Dependent Effect
SMILES: O=C1OC(Cc2n[nH]c(=O)o2)CN1c1ccccc1OCc1ccccc1 (configuration not stated)
- viability at 72 h, 250 ug/ml [2]: 93.8%
- viability at 72 h, 250 ug/ml [3]: 91.5%
- viability at 72 h, 250 ug/ml [4]: 94.6%
- viability at 72 h, 250 ug/ml [5]: 96.5%

- IC50 [1]: 108 µM
SMILES: Cc1cccc(NCC(O)c2n[nH]c(=O)[nH]2)c1 (configuration not stated)

- inhibition [8]: inactive
SMILES: COc1ccc(N2CC(Cc3n[nH]c(=O)o3)OC2=O)cc1 (configuration not stated)

- inhibition [8]: inactive
SMILES: COc1cccc(NCC(O)c2n[nH]c(=O)[nH]2)c1 (configuration not stated)

- IC50 [1]: 98.7 µM
SMILES: Cc1ccc(N2CC(c3n[nH]c(=O)o3)OC2=O)c(C)c1 (configuration not stated)

- IC50 [1]: 19.1 µM
SMILES: O=C1OC(Cc2n[nH]c(=O)o2)CN1c1cccc(OCc2ccccc2)c1 (configuration not stated)
- viability at 72 h, 250 ug/ml [2]: 90.5%
- viability at 72 h, 250 ug/ml [3]: 94.2%
- viability at 72 h, 250 ug/ml [4]: 90.2%
- viability at 72 h, 250 ug/ml [5]: 94.9%

- IC50 [1]: 116 µM
SMILES: CCOc1ccc(N2CC(c3n[nH]c(=O)o3)OC2=O)cc1 (configuration not stated)

- IC50 [1]: 85.2 µM
SMILES: O=c1[nH]nc(C(O)CNc2ccccc2)[nH]1 (configuration not stated)

- inhibition [8]: inactive
SMILES: O=C1OC(c2n[nH]c(=O)o2)CN1c1ccccc1 (configuration not stated)

- IC50 [1]: 65.2 µM
SMILES: O=C1OC(Cc2n[nH]c(=O)o2)CN1c1ccccc1 (configuration not stated)

- IC50 [1]: 87.5 µM
SMILES: Cc1ccc(NCC(O)c2n[nH]c(=O)[nH]2)c(C)c1 (configuration not stated)

- IC50 [1]: 22.1 µM
SMILES: CCc1cccc(N2CC(Cc3n[nH]c(=O)o3)OC2=O)c1 (configuration not stated)
- viability at 72 h, 250 ug/ml [2]: 95.3%
- viability at 72 h, 250 ug/ml [3]: 93.1%
- viability at 72 h, 250 ug/ml [4]: 89.3%
- viability at 72 h, 250 ug/ml [5]: 98.7%

- IC50 [1]: 162 µM
SMILES: CCc1ccc(N2CC(c3n[nH]c(=O)o3)OC2=O)cc1 (configuration not stated)

- IC50 [1]: 24.6 µM
SMILES: CC(C)c1ccc(N2CC(Cc3n[nH]c(=O)o3)OC2=O)cc1 (configuration not stated)
- viability at 72 h, 250 ug/ml [2]: 88.9%
- viability at 72 h, 250 ug/ml [3]: 89.3%
- viability at 72 h, 250 ug/ml [4]: 90.7%
- viability at 72 h, 250 ug/ml [5]: 96.2%

- IC50 [1]: 51.4 µM
SMILES: CC(C)c1ccc(NCC(O)c2n[nH]c(=O)[nH]2)cc1 (configuration not stated)

- IC50 [1]: 151 µM
SMILES: CCc1cccc(N2CC(c3n[nH]c(=O)o3)OC2=O)c1 (configuration not stated)

- IC50 [1]: 102 µM
SMILES: CCc1ccccc1N1CC(c2n[nH]c(=O)o2)OC1=O (configuration not stated)

- IC50 [1]: 61.3 µM
SMILES: CCOc1ccc(N2CC(Cc3n[nH]c(=O)o3)OC2=O)cc1 (configuration not stated)

- IC50 [1]: 46.8 µM
SMILES: CCOc1ccc(NCC(O)c2n[nH]c(=O)[nH]2)cc1 (configuration not stated)

- inhibition [8]: inactive
SMILES: Cc1cc(C)cc(N2CC(c3n[nH]c(=O)o3)OC2=O)c1 (configuration not stated)

- inhibition [8]: inactive
SMILES: Cc1ccc(N2CC(Cc3n[nH]c(=O)o3)OC2=O)cc1 (configuration not stated)

- IC50 [1]: 46.1 µM
SMILES: CCc1ccc(N2CC(Cc3n[nH]c(=O)o3)OC2=O)cc1 (configuration not stated)

- inhibition [8]: inactive
SMILES: COc1ccc(NCC(O)c2n[nH]c(=O)[nH]2)cc1 (configuration not stated)

- inhibition [8]: inactive
SMILES: COc1ccc(N2CC(c3n[nH]c(=O)o3)OC2=O)cc1 (configuration not stated)

- inhibition [8]: inactive
SMILES: Cc1ccc(N2CC(Cc3n[nH]c(=O)o3)OC2=O)cc1C (configuration not stated)

- IC50 [1]: 62.6 µM
SMILES: CCc1ccccc1NCC(O)c1n[nH]c(=O)[nH]1 (configuration not stated)

- inhibition [8]: inactive
SMILES: Cc1cccc(N2CC(c3n[nH]c(=O)o3)OC2=O)c1 (configuration not stated)

- IC50 [1]: 21.2 µM
SMILES: O=c1[nH]nc(C(O)CNc2ccc(OCc3ccccc3)cc2)[nH]1 (configuration not stated)
- viability at 72 h, 250 ug/ml [2]: 89.8%
- viability at 72 h, 250 ug/ml [3]: 89.3%
- viability at 72 h, 250 ug/ml [4]: 94.2%
- viability at 72 h, 250 ug/ml [5]: 94.7%

- IC50 [1]: 10.1 µM
- Ki [1]: 6.75 µM
SMILES: Cc1cc(C)cc(N2CC(Cc3n[nH]c(=O)o3)OC2=O)c1 (configuration not stated)
- viability at 72 h, 250 ug/ml [2]: 92.7%
- viability at 72 h, 250 ug/ml [3]: 90.8%
- viability at 72 h, 250 ug/ml [4]: 92.5%
- viability at 72 h, 250 ug/ml [5]: 98%

- IC50 [1]: 108 µM
SMILES: COc1cccc(N2CC(c3n[nH]c(=O)o3)OC2=O)c1 (configuration not stated)

- IC50 [1]: 45.7 µM
SMILES: O=C1OC(Cc2n[nH]c(=O)o2)CN1c1ccc(OCc2ccccc2)cc1 (configuration not stated)

- IC50 [1]: 38.8 µM
SMILES: CCOc1ccccc1NCC(O)c1n[nH]c(=O)[nH]1 (configuration not stated)

- IC50 [1]: 30.7 µM
SMILES: Cc1cc(C)cc(NCC(O)c2n[nH]c(=O)[nH]2)c1 (configuration not stated)

- inhibition [8]: inactive
SMILES: Cc1ccc(NCC(O)c2n[nH]c(=O)[nH]2)cc1 (configuration not stated)

- inhibition [8]: inactive
SMILES: Cc1ccc(N2CC(c3n[nH]c(=O)o3)OC2=O)cc1 (configuration not stated)

- IC50 [1]: 30.6 µM
SMILES: Cc1cccc(N2CC(Cc3n[nH]c(=O)o3)OC2=O)c1 (configuration not stated)

- IC50 [1]: 20.7 µM
SMILES: O=C1OC(c2n[nH]c(=O)o2)CN1c1cccc(OCc2ccccc2)c1 (configuration not stated)
- viability at 72 h, 250 ug/ml [2]: 90.7%
- viability at 72 h, 250 ug/ml [3]: 92.4%
- viability at 72 h, 250 ug/ml [4]: 87.6%
- viability at 72 h, 250 ug/ml [5]: 98.8%

- IC50 [1]: 40.2 µM
SMILES: CC(C)(C)c1ccc(NCC(O)c2n[nH]c(=O)[nH]2)cc1 (configuration not stated)

- IC50 [1]: 56.8 µM
SMILES: CC(C)(C)c1ccc(N2CC(Cc3n[nH]c(=O)o3)OC2=O)cc1 (configuration not stated)

- IC50 [1]: 93.5 µM
SMILES: Cc1ccccc1NCC(O)c1n[nH]c(=O)[nH]1 (configuration not stated)

From ChEMBL document CHEMBL5550092, “Synthesis and biological evaluation of triazolones/oxadiazolones as novel urease inhibitors” (Bioorg Med Chem, 2024)
